Each structure is given as a SMILES string. Read-outs that look alike come from different tables or passages of the source.

Assay [1] concerns human stem cell-derived motor neurons derived from a healthy patient. Nature of the assay: CPA survival assay, wild-type human stem cell-derived motor neurons. To be noted: for motor neuron survival restored, % of vehicle controls (maximum): CPA 33 μM, at 1.2 μM (PF-6260933), 2.4 μM (GNE-495), 0.6 μM (URMC-099).
Assay [2] relates to HB9::GFP-SOD1^+/+ human motor neurons. In words: Rescue of CPA toxicity in human ESC-derived motor neurons, SOD1^+/+. The assay is classed as cell-based. The conditions noted are these: 33 μM CPA; for rescue of CPA-induced cell death: WT motor neurons. The text has this: (§1) One advantage of the stem cell-derived motor neuron survival assay is that it can be easily extended to human motor neurons. To adapt the assay to human cells, we generated a new isogenic pair of ESC lines derived from a human ESC line expressing GFP under the control of the Hb9 motor neuron promoter (HUES3 HB9::GFP, (Di Giorgio et al. 2008)). […] . The pair of cell lines was differentiated into motor neurons in parallel using previously published protocols (Amoroso et al. 2013; […] .
(§2) Differentiation of human isogenic HUES3 ESC HB9::GFP reporter lines into motor neurons was performed as previously described (Maury et al. 2015). Cells were dissociated on day 16 of differentiation, FACS-sorted and plated on poly-ornithine- and laminin-coated surfaces as above. Serum-free human motor neuron plating media was supplemented with the antimitotic UFdU and the neurotrophic factors GDNF, BDNF, CNTF, and IGF1 (all at 10 ng/mL) as described (Johnson-Kerner et al. 2015).

In assay [3] the test system is ESC-derived spinal motor neurons and interneurons. Nature of the assay: Toxicity of ER stressors in mouse ESC-derived spinal neuron cultures. The assay is classed as cell-based. The text has this: One of the selective stressors that we identified was cyclopiazonic acid (CPA), a mycotoxin that reversibly blocks the sarcoendoplasmic reticulum-associated calcium ATPse (SERCA). SERCA is responsible for sequestering calcium from the cytoplasm into the endoplasmic reticulum (ER) (Goeger et al. 1988). SERCA inhibition lowers calcium concentration in the ER, leading to dysfunction of protein folding, activation of the unfolded protein response, ER stress, and apoptosis (Doutheil et al. 1997). […]. For all subsequent experiments, unless stated otherwise, motor neurons were treated with 7.5 μM CPA.
[…]. […] […].
For this analysis, we generated a new ESC line that expresses tdTomato in dI4 and dIL dorsal spinal inhibitory interneurons derived from Ptf1α-expressing progenitors (Hoang et al. 2017, unpublished data). We differentiated this line under conditions that promote the specification of dorsal interneuron identity. FACS-purified tdTomato-expressing interneurons were co-cultured with FACS-purified GFP-expressing spinal motor neurons (FIG. 16E and FIG. 16G).
To strengthen the link between the activation of ER stress and motor neuron degeneration, we extended our study to include two additional compounds that activate ER stress: thapsigargin, a drug that acts similarly to CPA by inhibiting SERCA pumps, but is irreversible (Lytton et al. 1991), and tunicamycin, a drug that triggers ER stress in a calcium-independent manner by inhibiting protein N-glycosylation in the ER (Oslowski et al. 2011). […] Thus, the motor neuron-toxic effects of CPA are likely related to its activation of ER stress pathways and not to its effects on calcium levels or other off-target effects (FIG. 16G).

In assay [4] the test system is hSOD1^G93A motor neurons. In words: RT-PCR of stress-associated genes after CPA treatment. In kind it is cell-based, mouse. Here is the method: . We observed a rapid increase in the expression of Bip and the key downstream effector Chop (Ddit3). Bip was increased 2-fold after 1 hour of CPA exposure, and continued to increase to approximately 5-fold by 8 hours. […] Other genes with >2-fold induction included: p58/PK 255 (6.5 fold at 8 hours), an ER-stress-induced protein kinase; Growth arrest and DNA-damage inducible protein 45 alpha (Gadd45a; […]; Erdj4, a Bip cofactor with involvement in ER associated protein degradation (ERAD) (5-fold at 4-8 hours); Atf4, a downstream mediator of the PERK-axis of the UPR (3-fold at 8 hours); […]; and Nrf2, a PERK substrate (2 fold at 8 hours). Altogether, these expression changes pointed to strong activation of multiple axes of the unfolded protein response (UPR) in motor neurons exposed to CPA (FIG. 19F).
Samples were lysed in TRIzol and frozen at −80° C. until further processing. RNA was extracted using the Qiashredder and Qiagen RNeasy Mini kits (Qiagen) according to the manufacturer's protocol. 1-2 μg total RNA was used for each reverse transcription reaction, and reactions were performed using the TaqMan RT kit (Applied Biosystems, Grand Island, NY, USA). Primer pairs were designed for target transcripts using Primer Express 3.0 (Applied Biosystems). Quantitative PCR reactions were performed using the Power SYBR Green PCR Master Mix (Applied Biosystems). Reactions were run and analyzed on a ViiA 7 (Life Technologies) qPCR instrument using absolute quantification settings.

In assay [5] the test system is HB9::GFP-SOD1^+/A4V human motor neurons. Nature of the assay: Rescue of CPA toxicity in human ESC-derived motor neurons, SOD1^+/A4V. The assay is classed as cell-based.
Description: as §1, §2

The subject of assay [6] is human ES motor neurons carrying the ALS-causing SOD1^A4V mutation. In words: cells. To be noted: 72 h. The assay is classed as cell-based. Here is the method:
Next, survival assays were performed with all the analogs at once to generate a low-variability dataset. All compounds were evaluated at concentrations ranging from 0.1-3.0 μM (five-point dilution) in three technical replicates and two biological replicates.

Assay [7] addresses T1, HGK/MAP4K4 (Homo sapiens, UniProt O95819). Nature of the assay: Radiolabeled ATP kinase assay (Reaction Biology Corp.), HGK. The assay is classed as biochemical. To be noted: 10 μM ATP, read-out: % Enzyme Activity (relative to DMSO controls), HGK/MAP4K4, Data 1. Also on record: purchased Reaction Biology Corp. Here is the method: (§3) Meanwhile, the same analogs were analyzed in a radiolabeled ATP assay (10 μM ATP; Reaction Biology Corp.) to compare the extent to which they could inhibit the activity of HGK, MLK1, or MLK3 in a cell-free environment (Table S3 and S4).
Target sequence in this assay (O95819 whole entry): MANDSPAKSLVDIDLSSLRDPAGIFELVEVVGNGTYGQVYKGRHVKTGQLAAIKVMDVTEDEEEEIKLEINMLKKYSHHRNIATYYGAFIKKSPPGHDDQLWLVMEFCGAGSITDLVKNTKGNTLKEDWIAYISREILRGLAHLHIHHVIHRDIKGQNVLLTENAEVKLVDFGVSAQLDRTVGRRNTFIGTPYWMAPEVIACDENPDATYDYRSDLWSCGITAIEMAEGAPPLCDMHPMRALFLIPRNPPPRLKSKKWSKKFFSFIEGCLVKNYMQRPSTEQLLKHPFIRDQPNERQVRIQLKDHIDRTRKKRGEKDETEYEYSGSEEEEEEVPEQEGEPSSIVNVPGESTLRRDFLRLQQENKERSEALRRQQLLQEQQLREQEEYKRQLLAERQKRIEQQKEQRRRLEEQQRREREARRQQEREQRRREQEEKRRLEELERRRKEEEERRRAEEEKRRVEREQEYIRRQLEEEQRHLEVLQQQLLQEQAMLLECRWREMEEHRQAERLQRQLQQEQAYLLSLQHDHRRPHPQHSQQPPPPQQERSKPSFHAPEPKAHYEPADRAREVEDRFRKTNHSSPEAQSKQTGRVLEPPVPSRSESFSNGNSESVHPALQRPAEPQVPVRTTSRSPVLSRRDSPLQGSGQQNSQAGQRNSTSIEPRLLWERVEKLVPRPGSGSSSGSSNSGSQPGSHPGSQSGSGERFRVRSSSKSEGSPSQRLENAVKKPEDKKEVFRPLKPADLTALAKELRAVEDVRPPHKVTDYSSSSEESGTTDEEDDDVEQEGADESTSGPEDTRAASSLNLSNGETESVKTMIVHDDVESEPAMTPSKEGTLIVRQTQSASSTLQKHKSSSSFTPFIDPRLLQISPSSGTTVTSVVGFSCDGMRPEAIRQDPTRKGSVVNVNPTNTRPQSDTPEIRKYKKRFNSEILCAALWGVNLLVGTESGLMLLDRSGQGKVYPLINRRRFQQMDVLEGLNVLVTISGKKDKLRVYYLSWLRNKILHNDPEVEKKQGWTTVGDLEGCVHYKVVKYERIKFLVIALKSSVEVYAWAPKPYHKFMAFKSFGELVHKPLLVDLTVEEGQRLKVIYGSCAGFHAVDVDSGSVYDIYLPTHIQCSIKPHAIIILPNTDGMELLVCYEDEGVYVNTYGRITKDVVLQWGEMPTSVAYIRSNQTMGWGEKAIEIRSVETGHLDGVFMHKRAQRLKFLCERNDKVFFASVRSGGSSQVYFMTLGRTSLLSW

Assay [8] deals with T2, MLK3/MAP3K11 (Homo sapiens, UniProt Q16584).
T2 construct: purchased Reaction Biology Corp
In words: Radiolabeled ATP kinase assay (Reaction Biology Corp.), MLK3. In kind it is biochemical. To be noted: 0.1 μM. Here is the method:
as §3

The subject of assay [9] is N9 microglial cells. In words: TNFα release by LPS-stimulated microglia (ELISA). In kind it is cell-based, mouse. To be noted: LPS 0.1-5 μM; 24 h. Here is the method:
To model microglial activation in vitro, we stimulated mouse N9 microglial cells with increasing concentrations of E. coli-derived lipopolysaccharides (LPS) (0.1-5 μM) to measure release of the pro-inflammatory cytokine TNFα into cell culture media.
Cultures were maintained in DMEM containing FBS (10%, Life Technologies) and Glutamax (1%, Life Technologies). […] N9 cells remaining in the culture dishes were treated with AlamarBlue (Thermo Fisher) to assess viability. 5 μL AlamarBlue was added to each well (containing 50 μL culture media) and incubated for 4 h at 37°.

Assay [10] has as its system human ES motor neurons. In words: Rescue of CPA toxicity by kinase inhibitors in dilution series (FIG. 3). The conditions noted are these: dilution series, FIG. 3.
Assay [11] deals with T1, HGK/MAP4K4. The conditions noted are these: Ammirati et al. 2015; Ndubaku et al. 2015; cited from earlier work.
Target sequence in this assay (O95819 whole entry, species assumed): as the sequence (O95819 whole entry) above
The target in assay [12] is NUAK1 (Homo sapiens, UniProt O60285). The conditions noted are these: 0.5 μM inhibitor; Anastassiadis et al. 2011; cited from earlier work.
NUAK1, sequence (O60285 whole entry, species assumed): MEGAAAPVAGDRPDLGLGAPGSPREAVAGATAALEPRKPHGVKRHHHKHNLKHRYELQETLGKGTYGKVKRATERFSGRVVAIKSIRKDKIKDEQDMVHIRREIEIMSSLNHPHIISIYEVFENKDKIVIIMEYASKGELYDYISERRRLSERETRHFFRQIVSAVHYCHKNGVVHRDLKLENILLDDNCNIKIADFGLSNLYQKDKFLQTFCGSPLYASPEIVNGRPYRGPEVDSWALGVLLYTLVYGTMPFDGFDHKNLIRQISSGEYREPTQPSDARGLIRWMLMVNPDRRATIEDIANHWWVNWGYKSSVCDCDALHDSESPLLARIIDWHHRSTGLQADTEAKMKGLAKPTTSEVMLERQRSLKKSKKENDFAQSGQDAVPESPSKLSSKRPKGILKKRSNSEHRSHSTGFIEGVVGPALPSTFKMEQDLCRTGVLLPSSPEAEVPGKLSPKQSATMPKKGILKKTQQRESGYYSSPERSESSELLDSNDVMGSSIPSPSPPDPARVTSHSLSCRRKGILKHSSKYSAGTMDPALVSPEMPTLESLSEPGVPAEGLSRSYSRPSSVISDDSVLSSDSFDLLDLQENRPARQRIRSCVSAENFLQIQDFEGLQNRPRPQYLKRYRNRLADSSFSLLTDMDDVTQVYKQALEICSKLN

T2 sequence (Q16584 whole entry): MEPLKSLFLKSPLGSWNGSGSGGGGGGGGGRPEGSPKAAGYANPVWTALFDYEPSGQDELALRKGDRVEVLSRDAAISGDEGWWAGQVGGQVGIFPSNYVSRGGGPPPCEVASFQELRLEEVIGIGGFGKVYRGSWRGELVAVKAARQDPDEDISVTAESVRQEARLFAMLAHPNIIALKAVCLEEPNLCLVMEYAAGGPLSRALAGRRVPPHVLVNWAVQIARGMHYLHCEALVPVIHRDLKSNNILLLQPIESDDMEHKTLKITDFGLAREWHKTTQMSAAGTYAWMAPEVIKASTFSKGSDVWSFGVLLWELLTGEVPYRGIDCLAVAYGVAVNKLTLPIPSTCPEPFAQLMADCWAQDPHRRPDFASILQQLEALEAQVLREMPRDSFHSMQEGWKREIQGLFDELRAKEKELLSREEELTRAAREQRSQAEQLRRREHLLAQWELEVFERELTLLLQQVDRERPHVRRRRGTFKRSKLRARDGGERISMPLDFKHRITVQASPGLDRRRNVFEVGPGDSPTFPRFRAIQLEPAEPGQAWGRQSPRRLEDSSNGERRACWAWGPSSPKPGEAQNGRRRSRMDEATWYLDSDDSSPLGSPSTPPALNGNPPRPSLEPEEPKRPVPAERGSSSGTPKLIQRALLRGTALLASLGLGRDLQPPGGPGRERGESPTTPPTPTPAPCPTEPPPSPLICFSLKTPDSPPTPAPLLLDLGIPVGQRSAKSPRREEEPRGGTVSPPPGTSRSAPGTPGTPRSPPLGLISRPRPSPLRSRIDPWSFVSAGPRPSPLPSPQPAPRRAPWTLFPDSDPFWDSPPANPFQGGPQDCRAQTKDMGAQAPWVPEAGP

On to `CC(=O)C1=C(O)[C@@H]2[C@H]3c4c[nH]c5cccc(c45)C[C@H]3C(C)(C)N2C1=O` [CPA, cyclopiazonic acid], for which the “motor neuron survival, % of controls treated with vehicle alone” value in assay [1] (CPA 33 μM for 72h, alone) is reported as about 40%. Moreover, the “loss of motor neurons” value in assay [2] was about 71%. In assay [3], the “effective concentration range at which mutant motor neurons exhibit reduced survival compared to control” value was 6.25 to 12.5 µM; the “reduction of survival of GFP− Tuj-1+ non-motor neurons” value is given as about 23%; the “reduction of survival of motor neurons (GFP+, Tuj1+)” value is listed as about 71%. Also, in assay [3] (FACS-purified co-culture, CPA), the “reduction of co-cultured spinal motor neuron survival” value is about 70% and the “reduction of dorsal spinal interneuron survival” value is listed as about 17%. Besides, in assay [4] (4-8 hours), the Erdj4 induction worked out at 5 fold. The Chop induction in assay [4] (4 and 8 hours) is 16 fold. For the same molecule, the Chop induction in assay [4] (1 hour) worked out at 4 fold. The Bip expression increase in assay [4] (1 hour of CPA exposure) was 2 fold. Further, in assay [4] (4 hours), the Gadd45a induction turned out to be 5 fold. Moreover, in [4] (8 hours), the Atf4 induction is recorded as 3 fold, the Bip expression increase entry is on record as “approximately 5 fold”, the Calreticulin induction turned out to be 3 fold and the Nrf2 induction was determined as 2 fold. In assay [4] (8 hours), this molecule displayed a p58/PK induction of 6.5 fold. Moreover, the “loss of motor neurons” value in assay [5] (33 μM CPA) was about 86%.

For `CN1CC2CCC(C1)N2Cc1ccc(-c2cnc3[nH]cc(-c4cccc5[nH]ncc45)c3c2)cc1` [Compound 12e, 4-(5-(4-((3-Methyl-3,8-diazabicyclo[3.2.1]octan-8-yl)methyl)phenyl)-1H-pyrrolo[2,3-b]pyridin-3-yl)-1H-indazole], the EC50 result in assay [6] (CPA 33 μM) was “Amibiguous”. The viability at 1 µM in assay [6] (Homo sapiens, Neuron, CPA (33 μM) + compound (1 μM), read-out: Motor Neuron Survival, % untreated) came out at 106%. Also, in assay [6] (Homo sapiens, Neuron, CPA 33 μM, read-out: Emax (MN survival % untreated)), the Emax is 144%. In addition, in assay [7] ([Cmpd] 0.025 μM), the remaining activity at 0.025 µM was found to be 2.73%. The remaining activity at 0.1 µM was 0.99% in [7] ([Cmpd] 0.1 μM) and 71.8% in assay [8]. The “TNFα secretion in LPS-stimulated microglia” value in [9] was “did not significantly decrease TNFα levels”.

As to `COC(=O)[C@@]1(O)C[C@H]2O[C@]1(C)n1c3ccccc3c3c4c(c5c6ccccc6n2c5c31)C(=O)NC4` [Compound K-252a], the figures for the “rescue of CPA-induced cell death” value in assay [2] and in [5] were 56% and 100%, respectively.

Usually IC50 stands for the concentration that inhibits the measured activity by half. As to `Nc1ncc(C(=O)NC2CN(C(=O)C3CC3)C2)c2ccc(-c3cccc(F)c3)nc12` [GNE-495], the “motor neuron survival restored, % of vehicle controls (maximum)” value in [1] is 73%. Moreover, in [10], the “rescue of CPA toxicity” value is “similarly neuroprotective”. Moreover, the IC50 in assay [11] was 3.7 nM.

On to `Cn1c2ccccc2c2c3c(c4c5ccccc5n(CCC#N)c4c21)CNC3=O` [Go 6976], for which the “rescue of CPA-induced cell death” value in assay [2] is 45%; in assay [5] (SOD1^A4V motor neurons, 33 μM CPA), 34%.

Consider `Nc1ccc(-c2cnc(N)c(-c3ccc(Cl)cc3)c2)cn1` [PF-6260933], for which, in assay [1], the “motor neuron survival restored, % of vehicle controls (maximum)” value was 63%. Moreover, the “rescue of CPA toxicity” value in assay [10] was “protected against CPA toxicity in a dose-dependent manner”. Further, in assay [11], the half-maximal inhibitory concentration (IC50) is 3.7 nM.

In the case of `CN(C)S(=O)(=O)c1ccc2c(c1)/C(=C/c1cc3c([nH]1)CCCC3)C(=O)N2` [SU6656], the “rescue of CPA toxicity” value in [10] is reported as “failed to rescue CPA toxicity”. In addition, the NUAK1 activity remaining in [12] is given as 10.9%.

The values are drawn from US12227500B2, “Substituted pyrrolo[2,3-b]pyridines for suppressing toxic endoplasmic reticulum stress” (THE TRUSTEES OF COLUMBIA UNIVERSITY IN THE CITY OF NEW YORK, priority 2018, dated 2025).
